In ChEMBL document CHEMBL1201862, “PubChem BioAssay data set” (2004):
Activity calls are given as the source filed them.

Key:
[1] = Luminescence Cell-Based Dose Response HTS to Identify Inhibitors of 5'UTR Stem-Loop Driven Prion Protein mRNA Translation in H4 Neuroglioblastoma Cells. [Related pubchem assays: 1827 (Project Summary), 1813 (Primary HTS)]; type: functional
[2] = target: Luciferin 4-monooxygenase (Photinus pyralis, UniProt P08659); test: In vitro luciferase assay using purified luciferase. [Related pubchem assays: 1299, 1270, 1295, 1375, 1287, 1281, 1293, 1291, 1289, 1280, 465, 1364, 1282, 1372, 1365, 1370, 1367, 1366, 1266, 1373, 1292, 1290, 1302, 1371, 1283, 1271, 1294, 1374, 1368, 1369 ]
[3] = HEK-293T viability loss after treatment – luminescence, T-cell screen hits, cytotoxicity control for TCR NF-kB inhibitor project, dose response (AID 489026); type: functional, cell-based;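 also: cells exposed to compound about 14 hours before the viability readout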
[4] = target: T1, Microphthalmia-associated transcription factor (Homo sapiens, UniProt O75030); test: reducers of TRPM1 reporter luminescence, concentration series – cell-based, SK-MEL-5, cherry-picked, set 3, MITF inhibitor project, dose response (AID 493073); type: functional;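 also: SK-MEL-5 melanoma cells with luciferase driven by the MITF target TRPM1 promoter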
T1 sequence (O75030 whole entry): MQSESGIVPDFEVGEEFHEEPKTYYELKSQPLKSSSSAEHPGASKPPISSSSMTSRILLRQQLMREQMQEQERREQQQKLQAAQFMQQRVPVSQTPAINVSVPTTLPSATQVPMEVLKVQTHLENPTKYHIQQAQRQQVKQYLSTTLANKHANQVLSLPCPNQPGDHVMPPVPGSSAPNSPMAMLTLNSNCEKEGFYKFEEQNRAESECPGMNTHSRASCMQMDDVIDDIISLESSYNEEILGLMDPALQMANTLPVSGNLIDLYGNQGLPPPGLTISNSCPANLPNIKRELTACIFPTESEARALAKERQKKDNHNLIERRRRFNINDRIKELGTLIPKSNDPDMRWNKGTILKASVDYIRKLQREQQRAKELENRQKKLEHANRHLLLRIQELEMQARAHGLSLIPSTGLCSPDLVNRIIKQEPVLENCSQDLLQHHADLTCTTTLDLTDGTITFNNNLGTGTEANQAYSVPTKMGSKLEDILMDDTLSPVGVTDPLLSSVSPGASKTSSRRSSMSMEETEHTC

[5] = test system: HEK293; test: PMA/Ionomycin induced NF-kB luciferase assay in 293- NF-kB-Luc stable cells. [Related pubchem assays: 1299, 1270, 1295, 1375, 1287, 1281, 1293, 1291, 1289, 1280, 465, 1364, 1282, 1372, 1365, 1370, 1367, 1366, 1269, 1373, 1292, 1290, 1302, 1371, 1283, 1271, 1294, 1374, 1368, 1369 ]; type: functional, cell-based; conditions: Homo sapiens
[6] = luciferase reporter signal suppression in cells – H4 neuroglioma cells, luminescence, dose response (AID 1990); type: functional, cell-based
[7] = target: T2, Heat shock factor protein 1 (Mus musculus, UniProt P38532); test: decrease of HSF1-responsive luciferase luminescence – cell-based, NIH3T3, dose retest, confirmation (AID 2382); type: functional;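 also: NIH3T3 fibroblasts with HSF1-driven luciferase reporter stressed by proteasome inhibitor MG132; luminescence from HSF1-driven luciferase expression after 8 hours of MG132 stress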
T2 sequence (P38532 whole entry): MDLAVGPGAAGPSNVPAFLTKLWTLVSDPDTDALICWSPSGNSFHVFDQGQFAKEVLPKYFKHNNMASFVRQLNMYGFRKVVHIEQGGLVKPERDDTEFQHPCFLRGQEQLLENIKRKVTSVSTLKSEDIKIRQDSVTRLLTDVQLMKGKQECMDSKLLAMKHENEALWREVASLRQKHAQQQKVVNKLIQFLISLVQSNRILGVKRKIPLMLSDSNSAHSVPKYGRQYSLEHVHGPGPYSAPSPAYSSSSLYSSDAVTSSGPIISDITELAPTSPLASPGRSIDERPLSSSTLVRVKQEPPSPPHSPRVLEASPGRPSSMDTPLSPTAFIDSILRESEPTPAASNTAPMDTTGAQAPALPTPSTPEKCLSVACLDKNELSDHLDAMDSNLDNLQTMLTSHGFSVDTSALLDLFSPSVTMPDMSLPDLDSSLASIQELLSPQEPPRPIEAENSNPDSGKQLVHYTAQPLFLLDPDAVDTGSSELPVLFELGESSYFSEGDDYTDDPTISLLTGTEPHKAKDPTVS

[8] = Luminescence-based counterscreen assay for KLF5 inhibitors: dose response cell-based high throughput screening assay to identify cytotoxic compounds using the IEC-6 intestinal epithelial cell line. [Related pubchem assays: 1700 (Primary screen.), 1834 (Confirmation screen.), 1858 (Summary AID.), 1905 (Counterscreen.)]; type: functional
[9] = test system: HEK293; test: Cytotoxicity assay in HEK293 cells. [Related pubchem assays (depositor defined):AID1266, AID1269, AID1270, AID1271, AID1280, AID1281, AID1282, AID1283, AID1287, AID1289, AID1290, AID1291, AID1292, AID1293, AID1294, AID1295, AID1299, AID1302, AID1364, AID1365, AID1366, AID1367, AID1369, AID1370, AID1371, AID1372, AID1373, AID1374, AID1375, AID1384 …; type: functional, cell-based; conditions: Homo sapiens
[10] = A Cell Based Secondary Assay To Explore Cytotoxicity of Compounds that Sensitize Mycobacterium Tuberculosis to Beta-Lactam Antibiotics.; type: functional
[11] = target: T3, Nucleotide-binding oligomerization domain-containing protein 1 (Homo sapiens, UniProt Q9Y239); test: blockers of NOD1 pathway activity – revised, SAR follow-up (AID 2333); type: functional
T3 sequence (Q9Y239 whole entry): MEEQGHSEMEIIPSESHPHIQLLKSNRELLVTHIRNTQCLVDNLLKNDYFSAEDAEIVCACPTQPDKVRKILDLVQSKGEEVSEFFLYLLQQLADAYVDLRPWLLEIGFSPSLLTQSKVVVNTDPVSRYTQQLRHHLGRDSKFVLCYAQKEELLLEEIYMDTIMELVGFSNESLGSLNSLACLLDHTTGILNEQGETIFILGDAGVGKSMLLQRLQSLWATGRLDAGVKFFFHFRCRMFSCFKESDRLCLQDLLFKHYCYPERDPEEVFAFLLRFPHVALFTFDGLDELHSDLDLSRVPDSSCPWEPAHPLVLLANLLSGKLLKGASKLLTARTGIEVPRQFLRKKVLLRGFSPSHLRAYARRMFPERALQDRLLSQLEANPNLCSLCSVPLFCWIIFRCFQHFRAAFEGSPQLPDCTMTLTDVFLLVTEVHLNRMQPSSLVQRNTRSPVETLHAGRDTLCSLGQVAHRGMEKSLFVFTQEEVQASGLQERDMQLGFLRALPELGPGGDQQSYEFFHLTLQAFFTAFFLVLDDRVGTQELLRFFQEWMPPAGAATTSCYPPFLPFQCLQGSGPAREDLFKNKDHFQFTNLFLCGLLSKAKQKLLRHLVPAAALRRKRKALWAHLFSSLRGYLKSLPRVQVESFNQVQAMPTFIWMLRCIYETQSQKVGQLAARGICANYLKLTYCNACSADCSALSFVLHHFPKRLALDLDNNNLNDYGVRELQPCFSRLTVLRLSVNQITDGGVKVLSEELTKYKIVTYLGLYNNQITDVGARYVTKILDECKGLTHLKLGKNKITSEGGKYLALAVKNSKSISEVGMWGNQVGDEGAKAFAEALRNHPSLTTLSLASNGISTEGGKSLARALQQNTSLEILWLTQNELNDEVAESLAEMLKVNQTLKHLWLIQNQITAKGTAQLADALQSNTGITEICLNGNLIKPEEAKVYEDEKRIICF

[12] = target: T4, Estrogen receptor (Homo sapiens, UniProt P03372); test: ERα coactivator recruitment enhancers – biochemical, TR-FRET, ERα LBD, dose response (AID 737)
T4 sequence (P03372 whole entry): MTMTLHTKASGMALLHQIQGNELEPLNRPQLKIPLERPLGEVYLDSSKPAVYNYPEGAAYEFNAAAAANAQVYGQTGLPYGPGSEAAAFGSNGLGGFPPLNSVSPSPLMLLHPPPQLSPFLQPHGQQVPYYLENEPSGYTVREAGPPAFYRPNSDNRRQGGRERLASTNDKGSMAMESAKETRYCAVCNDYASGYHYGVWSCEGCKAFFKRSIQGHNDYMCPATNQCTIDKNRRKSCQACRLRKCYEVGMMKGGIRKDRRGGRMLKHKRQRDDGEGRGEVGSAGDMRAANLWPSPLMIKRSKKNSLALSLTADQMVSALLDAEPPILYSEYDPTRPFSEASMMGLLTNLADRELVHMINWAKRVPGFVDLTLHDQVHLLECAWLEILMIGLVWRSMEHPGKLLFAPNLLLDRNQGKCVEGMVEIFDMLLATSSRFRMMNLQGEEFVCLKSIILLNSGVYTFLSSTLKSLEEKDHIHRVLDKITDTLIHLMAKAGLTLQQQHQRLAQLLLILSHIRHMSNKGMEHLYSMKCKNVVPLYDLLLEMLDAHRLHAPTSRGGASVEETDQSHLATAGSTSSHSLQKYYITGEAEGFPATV

[13] = target: Nucleotide-binding oligomerization domain-containing protein 2 (Homo sapiens, UniProt Q9HC29); test: PubChem AID 2334; type: functional
[14] = test system: HEK293; test: cells; conditions: Homo sapiens
[15] = target: Tumor necrosis factor (Homo sapiens, UniProt P01375); test: analog potency on TNFa NF-kB signaling – cell-based, revised, SAR follow-up (AID 2337); type: functional
Sequence of Tumor necrosis factor (P01375 whole entry): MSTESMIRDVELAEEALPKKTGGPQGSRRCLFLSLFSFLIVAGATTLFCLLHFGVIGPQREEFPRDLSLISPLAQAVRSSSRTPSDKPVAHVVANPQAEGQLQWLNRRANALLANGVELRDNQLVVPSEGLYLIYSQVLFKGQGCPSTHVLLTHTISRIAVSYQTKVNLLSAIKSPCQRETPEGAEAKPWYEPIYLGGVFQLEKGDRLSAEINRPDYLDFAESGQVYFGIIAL

[16] = target: Neutrophil collagenase (Homo sapiens, UniProt P22894); test: potency against MMP13, MMP2, MMP3, MMP14 – biochemical, probe development, late stage results, selectivity assay for MMP13 inhibitor project, late-stage follow-up, panel member MMP-8 [IC50 Assay] (AID 2067)
Sequence of Neutrophil collagenase (P22894 whole entry): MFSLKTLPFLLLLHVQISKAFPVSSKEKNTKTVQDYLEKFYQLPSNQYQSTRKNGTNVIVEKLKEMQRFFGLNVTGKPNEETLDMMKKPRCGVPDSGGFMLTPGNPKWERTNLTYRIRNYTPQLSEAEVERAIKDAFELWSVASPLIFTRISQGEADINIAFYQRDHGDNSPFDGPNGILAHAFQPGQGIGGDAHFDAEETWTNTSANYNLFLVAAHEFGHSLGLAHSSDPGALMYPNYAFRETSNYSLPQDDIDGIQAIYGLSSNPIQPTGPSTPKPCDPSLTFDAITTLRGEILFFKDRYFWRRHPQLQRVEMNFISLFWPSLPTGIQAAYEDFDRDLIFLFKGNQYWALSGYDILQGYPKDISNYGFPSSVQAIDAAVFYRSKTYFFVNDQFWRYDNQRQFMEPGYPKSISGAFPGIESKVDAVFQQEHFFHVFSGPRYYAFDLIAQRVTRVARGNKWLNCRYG

[17] = target: Collagenase 3 (Homo sapiens, UniProt P45452); test: potency against MMP13, MMP2, MMP3, MMP14 – biochemical, probe development, late stage results, selectivity assay for MMP13 inhibitor project, late-stage follow-up, panel member MMP-13 [IC50 Assay] (AID 2067)
[18] = target: Voltage-gated N-type calcium channel alpha-1B subunit/Amyloid beta A4 precursor protein-binding family A member 1 (Homo sapiens, UniProt Q00975+Q02410); test: disruptors of Mint-PDZ/N-type channel peptide interaction – biochemical, HTRF, set 2, SAR follow-up (AID 434980); type: functional
Sequence of Voltage-gated N-type calcium channel alpha-1B subunit/Amyloid beta A4 precursor protein-binding family A member 1 (Q00975 whole entry): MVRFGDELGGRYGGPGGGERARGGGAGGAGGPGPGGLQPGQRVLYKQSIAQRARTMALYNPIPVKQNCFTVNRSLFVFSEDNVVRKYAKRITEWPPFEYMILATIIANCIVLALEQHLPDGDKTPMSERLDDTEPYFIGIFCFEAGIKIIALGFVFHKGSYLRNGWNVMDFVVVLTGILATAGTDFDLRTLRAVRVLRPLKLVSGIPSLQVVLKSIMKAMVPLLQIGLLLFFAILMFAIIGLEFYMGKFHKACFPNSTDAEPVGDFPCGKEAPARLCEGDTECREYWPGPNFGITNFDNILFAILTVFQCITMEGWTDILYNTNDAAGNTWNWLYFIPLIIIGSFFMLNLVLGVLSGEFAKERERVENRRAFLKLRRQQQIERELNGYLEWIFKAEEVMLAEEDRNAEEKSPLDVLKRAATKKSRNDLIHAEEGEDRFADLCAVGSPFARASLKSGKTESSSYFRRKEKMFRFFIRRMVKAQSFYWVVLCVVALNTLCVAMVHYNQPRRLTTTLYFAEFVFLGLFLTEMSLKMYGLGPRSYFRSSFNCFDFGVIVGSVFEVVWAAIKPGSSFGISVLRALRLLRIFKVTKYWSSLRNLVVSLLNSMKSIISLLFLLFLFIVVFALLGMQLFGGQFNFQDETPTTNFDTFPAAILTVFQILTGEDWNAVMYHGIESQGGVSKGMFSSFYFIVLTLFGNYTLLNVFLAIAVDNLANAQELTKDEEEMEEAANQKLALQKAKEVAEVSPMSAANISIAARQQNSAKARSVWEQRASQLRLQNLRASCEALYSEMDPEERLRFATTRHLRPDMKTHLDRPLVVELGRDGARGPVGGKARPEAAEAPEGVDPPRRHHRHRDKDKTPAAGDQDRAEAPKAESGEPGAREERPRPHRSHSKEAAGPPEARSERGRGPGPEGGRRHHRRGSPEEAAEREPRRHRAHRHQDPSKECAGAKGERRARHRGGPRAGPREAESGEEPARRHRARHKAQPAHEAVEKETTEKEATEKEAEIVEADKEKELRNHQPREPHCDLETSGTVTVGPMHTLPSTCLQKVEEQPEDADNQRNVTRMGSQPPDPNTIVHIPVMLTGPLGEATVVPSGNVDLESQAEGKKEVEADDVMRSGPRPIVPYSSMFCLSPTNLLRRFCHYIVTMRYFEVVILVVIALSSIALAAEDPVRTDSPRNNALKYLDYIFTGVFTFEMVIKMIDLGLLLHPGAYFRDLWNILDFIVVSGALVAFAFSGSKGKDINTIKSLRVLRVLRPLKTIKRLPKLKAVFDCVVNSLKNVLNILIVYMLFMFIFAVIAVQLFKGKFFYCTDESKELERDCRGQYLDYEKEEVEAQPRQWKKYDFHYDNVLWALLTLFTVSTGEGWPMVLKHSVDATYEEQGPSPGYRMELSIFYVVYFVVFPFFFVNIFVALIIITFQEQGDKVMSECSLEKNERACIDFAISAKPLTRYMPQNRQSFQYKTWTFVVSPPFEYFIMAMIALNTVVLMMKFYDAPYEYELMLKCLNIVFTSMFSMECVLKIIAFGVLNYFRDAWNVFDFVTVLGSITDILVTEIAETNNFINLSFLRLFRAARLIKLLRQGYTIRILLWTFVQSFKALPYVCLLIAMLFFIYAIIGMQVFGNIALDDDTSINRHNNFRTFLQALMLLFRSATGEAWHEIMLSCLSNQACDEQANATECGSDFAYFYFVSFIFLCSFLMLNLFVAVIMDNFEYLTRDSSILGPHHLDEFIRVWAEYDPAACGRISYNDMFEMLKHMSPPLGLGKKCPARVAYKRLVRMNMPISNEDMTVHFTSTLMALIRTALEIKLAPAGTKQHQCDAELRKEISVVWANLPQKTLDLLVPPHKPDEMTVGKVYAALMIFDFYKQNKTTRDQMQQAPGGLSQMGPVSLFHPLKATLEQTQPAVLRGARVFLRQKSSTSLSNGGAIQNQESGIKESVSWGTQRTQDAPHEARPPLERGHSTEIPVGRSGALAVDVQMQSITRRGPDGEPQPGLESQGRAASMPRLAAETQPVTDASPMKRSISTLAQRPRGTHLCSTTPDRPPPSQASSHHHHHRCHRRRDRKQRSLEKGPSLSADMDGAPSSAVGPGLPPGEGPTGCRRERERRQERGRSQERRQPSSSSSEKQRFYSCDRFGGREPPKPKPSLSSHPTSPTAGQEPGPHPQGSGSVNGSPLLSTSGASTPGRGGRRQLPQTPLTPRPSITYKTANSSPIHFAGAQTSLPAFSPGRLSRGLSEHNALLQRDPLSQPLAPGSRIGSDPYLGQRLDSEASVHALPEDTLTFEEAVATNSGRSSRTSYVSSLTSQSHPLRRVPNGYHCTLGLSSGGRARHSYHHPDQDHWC
Sequence of Voltage-gated N-type calcium channel alpha-1B subunit/Amyloid beta A4 precursor protein-binding family A member 1 (Q02410 whole entry): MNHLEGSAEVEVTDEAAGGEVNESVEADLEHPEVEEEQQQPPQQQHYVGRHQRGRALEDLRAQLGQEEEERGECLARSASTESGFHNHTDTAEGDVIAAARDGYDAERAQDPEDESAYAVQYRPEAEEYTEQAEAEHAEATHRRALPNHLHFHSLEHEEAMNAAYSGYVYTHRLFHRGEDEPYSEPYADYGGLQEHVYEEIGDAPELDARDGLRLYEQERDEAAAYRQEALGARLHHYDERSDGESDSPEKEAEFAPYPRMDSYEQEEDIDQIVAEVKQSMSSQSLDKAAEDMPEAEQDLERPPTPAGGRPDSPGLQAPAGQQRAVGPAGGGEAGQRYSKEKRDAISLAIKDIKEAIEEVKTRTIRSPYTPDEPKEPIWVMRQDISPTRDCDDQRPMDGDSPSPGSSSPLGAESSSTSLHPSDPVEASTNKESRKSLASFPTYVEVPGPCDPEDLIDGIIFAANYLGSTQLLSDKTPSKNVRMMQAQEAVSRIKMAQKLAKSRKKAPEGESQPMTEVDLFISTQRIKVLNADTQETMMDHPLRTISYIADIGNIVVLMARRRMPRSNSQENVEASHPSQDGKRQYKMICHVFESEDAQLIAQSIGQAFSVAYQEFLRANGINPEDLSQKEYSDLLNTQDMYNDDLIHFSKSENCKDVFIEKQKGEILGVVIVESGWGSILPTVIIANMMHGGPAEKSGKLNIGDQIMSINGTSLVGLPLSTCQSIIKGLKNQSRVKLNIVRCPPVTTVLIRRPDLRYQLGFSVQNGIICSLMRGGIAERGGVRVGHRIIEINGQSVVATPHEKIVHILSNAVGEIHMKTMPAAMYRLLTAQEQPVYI

[19] = target: X-box-binding protein 1 (Homo sapiens, UniProt P17861); type: functional, Cricetulus griseus;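 also: confirmatory dose-response counter-screen serving a CHOP assay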
Sequence of X-box-binding protein 1 (P17861 whole entry): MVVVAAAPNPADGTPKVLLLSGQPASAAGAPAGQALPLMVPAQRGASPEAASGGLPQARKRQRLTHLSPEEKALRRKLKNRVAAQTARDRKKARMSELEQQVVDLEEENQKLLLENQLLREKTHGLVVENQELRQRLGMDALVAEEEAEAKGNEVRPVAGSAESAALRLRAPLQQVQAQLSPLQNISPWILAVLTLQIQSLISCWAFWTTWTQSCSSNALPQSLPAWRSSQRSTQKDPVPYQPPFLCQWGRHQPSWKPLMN

[20] = target: Acyl-homoserine lactone acylase PvdQ (Pseudomonas aeruginosa (strain LESB58), UniProt Q9I194); test: PvdQ acylase enzyme activity blockers – biochemical, fluorescence, plate reader and imaging, cherry-picks, dose response (AID 493231)
[21] = target: T4, Estrogen receptor
[22] = target: Scavenger receptor class B member 1 (Mus musculus, UniProt Q61009); test: mouse SR-BI DiI-HDL uptake blockers – ldlA[mSR-BI] cells, fluorescence, cherry pick, dose response (AID 493194); type: functional, cell-based;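 also: cellular uptake of fluorescent DiI-labeled HDL measured as cell fluorescence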
Sequence of Scavenger receptor class B member 1 (Q61009 whole entry): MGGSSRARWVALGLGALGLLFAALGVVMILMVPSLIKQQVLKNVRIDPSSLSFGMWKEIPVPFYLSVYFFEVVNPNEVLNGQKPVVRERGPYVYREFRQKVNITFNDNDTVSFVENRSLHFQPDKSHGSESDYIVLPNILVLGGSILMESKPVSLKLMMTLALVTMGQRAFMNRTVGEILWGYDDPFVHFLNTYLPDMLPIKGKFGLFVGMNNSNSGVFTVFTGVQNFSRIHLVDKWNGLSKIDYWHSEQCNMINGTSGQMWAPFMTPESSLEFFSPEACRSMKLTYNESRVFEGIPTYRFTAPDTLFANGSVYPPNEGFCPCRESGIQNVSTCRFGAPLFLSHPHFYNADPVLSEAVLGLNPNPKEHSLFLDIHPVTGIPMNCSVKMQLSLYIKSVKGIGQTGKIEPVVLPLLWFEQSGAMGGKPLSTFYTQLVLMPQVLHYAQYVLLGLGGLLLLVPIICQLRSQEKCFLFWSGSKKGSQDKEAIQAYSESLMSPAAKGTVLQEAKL

SMILES: COC(=O)C1=C(CN2CCCc3ccccc32)NC(=O)NC1c1ccc(F)cc1 (configuration not stated)
- EC50 [1]: 12.4 µM (active)
- EC50 [2]: > 8 µM (not active)
- IC50 [3]: > 80 µM (inactive)
- AC50 [4]: 2.16 µM (active)
- EC50 [5]: 9.82 µM (not active)
- EC50 [6]: 6.69 µM (inconclusive)
- EC50 [7]: 8.88 µM (active)
- IC50 [8]: > 39.8 µM (not active)
- EC50 [9]: > 8 µM (inactive)

SMILES: Cc1ccc(Cn2c(NC(=O)c3ccco3)nc3ccccc32)cc1
- CC50 [10]: 10.1 µM (active)
- IC50 [11]: > 20 µM (inactive)
- EC50 [12]: 14.6 µM (active)
- IC50 [13]: > 20 µM (inactive)
- IC50 [14]: > 20 µM (inactive)
- IC50 [15]: > 20 µM (inactive)

SMILES: O=C(O)c1ccc(CSc2nc3c(c(=O)[nH]2)CCC3)cc1
- IC50 [16]: > 39.8 µM (inactive)
- IC50 [17]: > 39.8 µM (inactive)

SMILES: CN(CCc1ccccc1)C(=O)c1cc(-c2ccco2)nc2ccccc12
- IC50 [18]: > 56.8 µM (inactive)

SMILES: CCC(C)(C)NC(=O)C(c1cccn1C)N(C(=O)Cn1nnc2ccccc21)c1ccc(F)cc1 (configuration not stated)
- Absolute IC50 (XBP1) [19]: 10 µM

SMILES: Cc1ccc([S+]([O-])c2ccc(C)cc2)cc1
- AC50 [20]: 2.65 µM (active)

SMILES: CCOC(=O)c1c(Nc2nc(C)c(C(=O)NC)s2)sc(C)c1C
- IC50 [21]: 42.3 µM (not active)
- AC50 [22]: 11.6 µM (active)
